Assay: Test Example 2: identification of decomposition products of compound (I) by mass spectra
Assay type: physicochemical
Conditions: composition with compound (I-A), compound (I-B), dicamba diglycolamine salt, acetic acid and potassium hydroxide, 50° C. for 8 weeks
Procedure: Test Example 2: Identification of Decomposition Product of Compound (I)
Mass spectra were measured for compositions containing the compound (I-A), the compound (I-B), a dicamba diglycolamine salt, acetic acid and potassium hydroxide, which were left to stand in an incubator at 50° C. for 8 weeks.
The decomposition product a is obtained as a result of ring-opening of a uracil ring due to the cleavage of a C—N bond (bond between an N atom at the 3-position and a C atom at the 4-position) included in an imide structure constituting a uracil ring structure of the compound (I-A), and a bond between an N atom at the 1-position and a C atom at the 6-position. The decomposed product b is obtained as a result of the addition of diglycolamine (DGA) to the terminal ethyl ester moiety, in addition to the ring-opening of the uracil ring of the compound (I-A).

Row | Compound | decomposition products confirmed
1 | CCOC(=O)COc1ncccc1Oc1cc(-n2c(=O)cc(C(F)(F)F)n(C)c2=O)c(F)cc1Cl [compound (I-A)] | decomposition products a and b
2 | C#CCN1C(=O)COc2cc(F)c(N3C(=O)C4=C(CCCC4)C3=O)cc21 [compound (I-B)] | decomposition product c
